Assay results: the OligoGym collection
Where “and” joins values, the source holds several entries; their conditions need not be identical. Equal values may be shown once. After the bases stand the sugars from the 5' end (letter, count) and the backbone: PS all phosphorothioate, else s phosphorothioate and o phosphodiester by linkage. Methylation of C is not given here. k = constrained ethyl (cEt); d = 2'-deoxy (DNA)

Target: MALAT1
Conditions: ASO, A431, 0.005 µM

Sequence	target mRNA inhibition
CCAAACAACTTTTGCA (sugars k3 d10 k3, PS)	44%
CCAACCACTCGCTTTC (sugars k3 d10 k3, PS)	26%
CCAACTAATTGCCAAT (sugars k3 d10 k3, PS)	40%
CCAACTTGGAAGTTGA (sugars k3 d10 k3, PS)	31%
CCAAGCTACTGGCTGC (sugars k3 d10 k3, PS)	23%
CCAATATTTGCCCCTC (sugars k3 d10 k3, PS)	40%
CCACCAAAGACCTCGA (sugars k3 d10 k3, PS)	27%
CCACGCCAACACAGTT (sugars k3 d10 k3, PS)	31%
CCACTCGCTTTCCCTG (sugars k3 d10 k3, PS)	41%
CCACTCTAAGATTGTA (sugars k3 d10 k3, PS)	40%
CCAGCCTATAAGGACA (sugars k3 d10 k3, PS)	-1%
CCAGGAGTGCCAACCA (sugars k3 d10 k3, PS)	5%
CCAGGCTGGTTATGAC (sugars k3 d10 k3, PS)	44%
CCATTACGCAACTGAG (sugars k3 d10 k3, PS)	12%
CCCAAAAGCCCTCTCA (sugars k3 d10 k3, PS)	12%
CCCAAATTAATGCACT (sugars k3 d10 k3, PS)	51% and 42%
CCCACCAAAGACCTCG (sugars k3 d10 k3, PS)	31%
CCCACCCTCTAAGAGA (sugars k3 d10 k3, PS)	-4%
CCCAGTTTGTCAATAG (sugars k3 d10 k3, PS)	39%
CCCATAATTGTAGTTA (sugars k3 d10 k3, PS)	45%
CCCCAACTGCTTGCAG (sugars k3 d10 k3, PS)	13%
CCCCAATCAAGATTTT (sugars k3 d10 k3, PS)	-21%
CCCCACGGCCCGCACG (sugars k3 d10 k3, PS)	-9%

Sequence	target mRNA inhibition
CCCCAGTCCTTTACAG (sugars k3 d10 k3, PS)	9%
CCCCATATAAATCCCT (sugars k3 d10 k3, PS)	-7%
CCCCCATTATATTAGA (sugars k3 d10 k3, PS)	28%
CCCCCCCAAGATTGCC (sugars k3 d10 k3, PS)	-16%
CCCCCCGCCTCAGTTA (sugars k3 d10 k3, PS)	-7%
CCCCCGCCTCAGTTAC (sugars k3 d10 k3, PS)	28%
CCCGCCTGAGCCCCGG (sugars k3 d10 k3, PS)	-2%
CCCGGAAATCGGCCTA (sugars k3 d10 k3, PS)	0%
CCCTATATAAGGTCAA (sugars k3 d10 k3, PS)	13%
CCCTCCCCTTTAATAA (sugars k3 d10 k3, PS)	-17%
CCGCCTCTTAAAGCAC (sugars k3 d10 k3, PS)	-9%
CCGCCTGAGCCCCGGG (sugars k3 d10 k3, PS)	-9%
CCGCTAAGATGCTAGC (sugars k3 d10 k3, PS)	20%
CCGGAAATCGGCCTAC (sugars k3 d10 k3, PS)	20%
CCGTTTTTCAGCTTCC (sugars k3 d10 k3, PS)	6%
CCTAGCTTCCTTCACC (sugars k3 d10 k3, PS)	17%
CCTCTAAGAGACATTC (sugars k3 d10 k3, PS)	29%
CCTGAAAAAGTCTTAG (sugars k3 d10 k3, PS)	28%
CCTGGGTCAGCTGTCA (sugars k3 d10 k3, PS)	51%
CCTGTTAAGACCATCC (sugars k3 d10 k3, PS)	40%
CCTTAAAGTTACATTC (sugars k3 d10 k3, PS)	33%
CCTTAGGATAATAGCG (sugars k3 d10 k3, PS)	60% and 51%
CCTTCCCTATATAAGG (sugars k3 d10 k3, PS)	-41%

Sequence	target mRNA inhibition
CCTTCTATTGGTATTA (sugars k3 d10 k3, PS)	28%
CCTTGAAACCGATTAT (sugars k3 d10 k3, PS)	36%
CGAACTGCTGCTTGCT (sugars k3 d10 k3, PS)	40%
CGAAGAGATACCTGTC (sugars k3 d10 k3, PS)	23%
CGCACGGAAATTTTTC (sugars k3 d10 k3, PS)	-17%
CGCCAGCCCCCCACGG (sugars k3 d10 k3, PS)	-45%
CGCCGCAGGGATTTGA (sugars k3 d10 k3, PS)	19%
CGCTTTGTTGTCTCTC (sugars k3 d10 k3, PS)	87% and 99%
CGCTTTTATTCTGCTT (sugars k3 d10 k3, PS)	6%
CGGAAATCGGCCTACG (sugars k3 d10 k3, PS)	30%
CGGATTTTTACCAACC (sugars k3 d10 k3, PS)	38%
CGGCCCGCACGGAAAT (sugars k3 d10 k3, PS)	24%
CGTAACAGGCCACTGC (sugars k3 d10 k3, PS)	2%
CGTGAAAACCCACTCT (sugars k3 d10 k3, PS)	-6%
CGTGAGAACTGCTCTA (sugars k3 d10 k3, PS)	37%
CGTGTGGAAAGATTTG (sugars k3 d10 k3, PS)	0%
CGTTACGAAAGTCCTT (sugars k3 d10 k3, PS)	25%
CTAAATACCACCACCT (sugars k3 d10 k3, PS)	12%
CTAAGATAGCAGCACA (sugars k3 d10 k3, PS)	11%
CTAAGATTGTAAGCAT (sugars k3 d10 k3, PS)	28%
CTAAGCAATATCTTAG (sugars k3 d10 k3, PS)	15%
CTACACAATTTACATC (sugars k3 d10 k3, PS)	22%
CTACATTTACAAAACG (sugars k3 d10 k3, PS)	29%

Sequence	target mRNA inhibition
CTACTGAAGAGCATTG (sugars k3 d10 k3, PS)	22%
CTACTTTAAGCCTTCG (sugars k3 d10 k3, PS)	31%
CTAGGGAAAAGTGGTT (sugars k3 d10 k3, PS)	-22%
CTATCTTCACCACGAA (sugars k3 d10 k3, PS)	40%
CTCAAAGTCCAATGCA (sugars k3 d10 k3, PS)	48%
CTCAGTACGAAACTCC (sugars k3 d10 k3, PS)	30%
CTCCAATACTTGTCTT (sugars k3 d10 k3, PS)	54% and 44%
CTCCAATGGACATCTC (sugars k3 d10 k3, PS)	29%
CTCCCCTTCAAGCACC (sugars k3 d10 k3, PS)	4%
CTCGCATCACCGGAAT (sugars k3 d10 k3, PS)	-14%
CTCGCCTCCTCCGTGT (sugars k3 d10 k3, PS)	10%
CTCGCTTTCCCTGTGG (sugars k3 d10 k3, PS)	17%
CTCTAAGAGACATTCA (sugars k3 d10 k3, PS)	23%
CTCTATACTTTGAAGG (sugars k3 d10 k3, PS)	20%
CTCTCATTTATTTCGG (sugars k3 d10 k3, PS)	59% and 84%
CTCTGCAGTTTCTATA (sugars k3 d10 k3, PS)	31%
CTCTTGAGGGACAGTA (sugars k3 d10 k3, PS)	4%
CTGAACCGGAGCAGGA (sugars k3 d10 k3, PS)	-13%
CTGAACTATCACAATT (sugars k3 d10 k3, PS)	28%
CTGCAAGGTCTCATAC (sugars k3 d10 k3, PS)	24%
CTGCAGATGCAAGTTA (sugars k3 d10 k3, PS)	49%
CTGCAGTTTCTATAGT (sugars k3 d10 k3, PS)	22%
CTGCCAACTAATTGCC (sugars k3 d10 k3, PS)	-32%

Sequence	target mRNA inhibition
CTGCCTCAATGCCTAC (sugars k3 d10 k3, PS)	44%
CTGCGACTTGCTCCCA (sugars k3 d10 k3, PS)	10%
CTGCGGTTTCCTCAAG (sugars k3 d10 k3, PS)	29%
CTGCTTACAGATTTGC (sugars k3 d10 k3, PS)	49%
CTGGAAGCTCCTTCTA (sugars k3 d10 k3, PS)	25%
CTGGCATGCTGGTCTA (sugars k3 d10 k3, PS)	19%
CTGTCTGAGGCAAACG (sugars k3 d10 k3, PS)	37%
CTGTTAAGACCATCCC (sugars k3 d10 k3, PS)	46%
CTTCAGGATCATTAAG (sugars k3 d10 k3, PS)	3%
CTTCCCGTACTTCTGT (sugars k3 d10 k3, PS)	43%
CTTCGGATGCTTCACT (sugars k3 d10 k3, PS)	33%
CTTCGGTTAAAAATAG (sugars k3 d10 k3, PS)	4%
CTTGAAACCGATTATG (sugars k3 d10 k3, PS)	38%
CTTGAATTACTTCCGT (sugars k3 d10 k3, PS)	56% and 40%
CTTGACCTTAGGATAA (sugars k3 d10 k3, PS)	44%
CTTGGGAAATCTTAGA (sugars k3 d10 k3, PS)	-11%
CTTTAAATGACGCAAT (sugars k3 d10 k3, PS)	35%
CTTTAAATTGGTAGCT (sugars k3 d10 k3, PS)	45%
CTTTAAGCCTTCGGTG (sugars k3 d10 k3, PS)	-3%
CTTTACAGAAGTCTCG (sugars k3 d10 k3, PS)	22%
CTTTATCACTCAGCTG (sugars k3 d10 k3, PS)	37%
CTTTCATAGAGCCTTC (sugars k3 d10 k3, PS)	43%
